Measured values reported in patent US20010056184A1, “Pipecolinic acid derivatives, method of manufacturing the same and therapeutic agents containing these compounds” (priority 2000, published 2001).
pIC50: −log10 of the molar value.

Tests used:
Δ MT1-MMP (Δ MMP-14) = biological target: T1, Δ MT1-MMP (Δ MMP-14) (Homo sapiens, UniProt P50281); assay: Δ MT1-MMP (Δ MMP-14) inhibitory activities, fluorogenic substrate enzyme assay; type: biochemical; conditions: 37° C., 30 min, substrate 10 μM; read-out: ΔMMP-14 IC50
T1 construct: ProMT1-MMP cDNA encoded extracellular domain of pro Δ MT1-MMP was tranfected E. coli BL21DE3; made in house; host or cells: E. coli BL21DE3 (inclusion bodies, 8M urea, ion exchange)
Description: Examination 3: Δ MT1-MMP (Δ MMP-14) inhibitory activities.
ProMT1-MMP cDNA encoded extracellular domain of pro Δ MT1-MMP was tranfected E. coli BL21DE3, pro Δ MT1-MMP collected as inclusion body was solved using 8M urea, and it was pulified by ion exchenge column chlomatography. Inhibition of enzyme activities were estimated by enzyme assay using activated Δ MT1-MMP, obtained from activation of pro Δ MT1-MMP by 10 μ/ml tripsine, and MOCAc-Pro-Leu-Gly-Leu-A2pr(Dnp)-Ala-Arg-NH2 (Peptide Research Center, 3163-v) as substrate. Thus, Δ MT1-MMP, test compound (several concentrations), and the substrate (10 μM) were incubated in 50 mM Tris - HCl buffer (pH 7.4) containing 0.2M NaCl, 10 mM CaCl2, 0.02% NaN3, 0.05% Brij 35, and 10 μM leuipeputine at 37° C. for 30 min. The reaction was stopped by adding of 4 volumes of sodium acetate buffer (pH 4.0), and the degradation of substrate was calculated by measurement with a fluorescence intensity (λ ex 328 nm, λ em 393 nm). Inhibition of degradation of substrate in the presence of compound was determined by comparison with the degradation of substrate in the absence of compound, and concentration of 50% inhibition (IC50 value) was calculated.

[1] = biological target: T2, human fibroblasts derived MMP-1 (type I collagenase) (Homo sapiens, UniProt P03956); assay: MMP-1 (type I collagenase) inhibitory activities, fluorogenic substrate enzyme assay; type: biochemical; conditions: for pIC50: 37° C., 4 h, substrate 10 μM; for inhibition at 10 µM: at 10^−5M, NE means no effect, read-out: MMP-1 inhibition percent
T2 construct: human fibroblasts derived MMP-1 (Yagai Co. Ltd.) as enzyme; purchased Yagai Co. Ltd; host or cells: human fibroblasts
T2 sequence (P03956 100-469): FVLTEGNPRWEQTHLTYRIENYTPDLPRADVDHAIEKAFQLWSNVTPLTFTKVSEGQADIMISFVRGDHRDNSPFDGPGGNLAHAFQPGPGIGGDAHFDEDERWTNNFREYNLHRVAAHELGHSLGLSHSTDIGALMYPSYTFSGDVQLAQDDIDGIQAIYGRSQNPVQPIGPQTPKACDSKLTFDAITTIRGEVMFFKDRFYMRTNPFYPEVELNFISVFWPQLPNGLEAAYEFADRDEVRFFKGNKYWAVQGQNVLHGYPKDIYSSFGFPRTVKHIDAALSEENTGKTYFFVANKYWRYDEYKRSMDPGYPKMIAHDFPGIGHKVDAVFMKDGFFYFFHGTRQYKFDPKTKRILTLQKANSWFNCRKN
Procedure: Examination 1: MMP-1 (type I collagenase) inhibitory activities.
Inhibitory activities of MMP-1 (type I collagenase) activities were estimated by enzyme assay using human fibroblasts derived MMP-1 (Yagai Co. Ltd.) as enzyme, and MOCAc-Pro-Leu-Gly-Leu-A2pr(Dnp)-Ala-Arg-NH2 (Peptide Research Center, 3163-v) as substrate. Thus, MMP-1 (0.01 U/ml), test compound (10^−10˜10^−5 M), and the substrate (10 μM) were incubated in 50 mM Tris-HCl buffer (pH 7.4) containing 0.2M NaCl, 10 mM CaCl2, 0.02% NaN3, and 0.05% Brij 35 at 37° C. for 4 h. The reaction was stopped by adding of 4 volumes of sodium acetate buffer (pH 4.0), and the degradation of substrate was calculated by measurement with a fluorescence intensity (λ ex 328 nm, λ em 393 nm). Inhibition of degradation of substrate in the presence of compound was determined by comparison with the degradation percent of substrate in the absence of compound, and concentration of 50% inhibition (IC50 value) was calculated.

MMP-2 (gelatinase A) = biological target: T3, MMP-2 (gelatinase A) (Homo sapiens, UniProt P08253); assay: MMP-2 (gelatinase A) inhibitory activities, fluorogenic substrate enzyme assay; type: biochemical; conditions: 42° C., 2 h, substrate 10 μM
T3 construct: made in house; host or cells: COS-1 cells (secreted into culture medium)
T3 sequence (P08253 110-660): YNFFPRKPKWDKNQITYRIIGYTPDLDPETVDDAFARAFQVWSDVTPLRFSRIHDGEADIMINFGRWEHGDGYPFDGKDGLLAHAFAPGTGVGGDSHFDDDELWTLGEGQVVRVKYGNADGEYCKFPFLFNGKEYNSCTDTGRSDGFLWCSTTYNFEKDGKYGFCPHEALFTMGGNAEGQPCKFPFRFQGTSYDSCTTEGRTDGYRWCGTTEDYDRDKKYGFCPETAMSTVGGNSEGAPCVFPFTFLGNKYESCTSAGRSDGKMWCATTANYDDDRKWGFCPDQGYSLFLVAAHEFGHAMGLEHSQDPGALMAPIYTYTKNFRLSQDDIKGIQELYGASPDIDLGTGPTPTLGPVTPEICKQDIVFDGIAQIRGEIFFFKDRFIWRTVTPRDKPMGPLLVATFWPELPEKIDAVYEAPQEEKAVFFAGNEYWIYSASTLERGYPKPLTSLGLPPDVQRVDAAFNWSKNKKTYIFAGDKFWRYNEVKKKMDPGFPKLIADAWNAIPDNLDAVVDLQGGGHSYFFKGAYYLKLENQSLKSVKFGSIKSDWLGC
Procedure: (§1) Examination 2: MMP-2 (gelatinase A) and MMP-9 (gelatinase B) inhibitory activities.
(§2) Pro MMP-2 was obtained from culture medium separated from human pro-MMP-2 cDNA tranfected COS-1 cells. Pro MMP-2 activated by 1 mM (4-aminophenyl) mercury acetic acid and MMP-9, derived human fibrosarcome (Yagai Co. Ltd.), were used as enzyme respectively. Inhibition of both enzyme activities were estimated by enzyme assay using MOCAc-Pro-Leu-Gly-Leu-A2pr(Dnp)-Ala-Arg-NH2 (Peptide Research Center, 3163-v) as substrate. Thus, MMP-2 or MMP-9 (0.01 U/ml), test compound (several concentrations), and the substrate (10 μM) were incubated in 50 mM Tris - HCl buffer (pH 7.4) containing 0.2M NaCl, 10 mM CaCl2, 0.02% NaN3, and 0.05% Brij 35 at 42° C. for 2 h (MMP-2), 3 h (MMP-9) respectively. Inhibition of degradation of substrate in the presence of compound was determined by comparison with the degradation of substrate in the absence of compound, and concentration of 50% inhibition (IC50 value) was calculated.

MMP-9 (gelatinase B) = biological target: T4, MMP-9 (gelatinase B) (Homo sapiens, UniProt P14780); assay: MMP-9 (gelatinase B) inhibitory activities, fluorogenic substrate enzyme assay; type: biochemical; conditions: for pIC50: 42° C., 3 h, substrate 10 μM
T4 construct: MMP-9, derived human fibrosarcome (Yagai Co. Ltd.), were used as enzyme respectively; purchased Yagai Co. Ltd; host or cells: human fibrosarcoma
Procedure: as §1, §2

T4 sequence (P14780 94-707): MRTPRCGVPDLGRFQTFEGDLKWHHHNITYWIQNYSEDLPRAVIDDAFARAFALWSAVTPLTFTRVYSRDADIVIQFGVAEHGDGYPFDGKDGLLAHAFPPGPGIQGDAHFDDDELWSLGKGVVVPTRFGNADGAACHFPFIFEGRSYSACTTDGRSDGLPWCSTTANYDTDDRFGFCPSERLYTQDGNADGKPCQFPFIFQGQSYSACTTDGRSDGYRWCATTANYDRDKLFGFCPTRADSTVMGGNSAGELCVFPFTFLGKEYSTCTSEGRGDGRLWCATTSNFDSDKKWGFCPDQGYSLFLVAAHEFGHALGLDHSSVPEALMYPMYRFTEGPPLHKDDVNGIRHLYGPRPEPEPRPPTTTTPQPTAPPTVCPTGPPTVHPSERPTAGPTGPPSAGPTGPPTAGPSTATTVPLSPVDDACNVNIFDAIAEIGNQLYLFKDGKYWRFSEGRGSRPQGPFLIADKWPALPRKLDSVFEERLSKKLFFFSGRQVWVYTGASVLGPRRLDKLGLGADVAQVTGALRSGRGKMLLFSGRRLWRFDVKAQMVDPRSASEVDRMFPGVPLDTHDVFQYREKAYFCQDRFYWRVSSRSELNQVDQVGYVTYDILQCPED

Row | Structure (SMILES) | melting point [°C] | pIC50 (Δ MT1-MMP (Δ MMP-14)) | pIC50 [1] | pIC50 (MMP-2 (gelatinase A)) | pIC50 (MMP-9 (gelatinase B)) | inhibition at 10 µM [1] [%] | inhibition at 10 µM (MMP-9 (gelatinase B); at 10^−5M, read-out: MMP-9 inhibition percent) [%]
1 | COc1ccc(C(=O)N[C@@H]2CCN(S(=O)(=O)c3ccc(-c4ccc(OC)cc4)cc3)[C@@H](C(=O)O)C2)cc1 [Compound 4, (2R, 4R)-2-Carboxy-4-(4-methoxybenzoylamino)-1-[4-(4-methoxyphenyl)benzenesulfonyl)-piperidine] | > 250 |  |  |  |  |  | 
2 | COc1ccc(C(=O)N[C@@H]2CCN(S(=O)(=O)c3ccc(OC)cc3)[C@@H](C(=O)NO)C2)cc1 [Compound 47, (2R, 4R)-2-Hydroxyaminocarbonyl-1-(4-methoxybenzenesulfonyl)-4-(4-methoxybenzoylamino)-piperidine] |  | 8.49 | 5.26 | 8.77 | 8.89 |  | 
3 | COc1ccc(-c2ccc(S(=O)(=O)N3CC[C@@H](NC(=O)c4c[nH]c5ccccc45)C[C@@H]3C(=O)NO)cc2)cc1 [Compound 76, (2R, 4R)-2-Hydroxyaminocarbonyl-4-(3-indolecarbonylamino)-1-[4-(4-methoxyphenyl)benzenesulfonyl]-piperidine] |  | 7.02 |  | 7.92 | 7.68 | 12.9 | 
4 | CC(C)CCC(=O)N[C@@H]1CCN(S(=O)(=O)c2ccc(-c3ccc(Cl)cc3)cc2)[C@@H](C(=O)NO)C1 [Compound 71, (2R, 4R)-1-[4-(4-Chlorohenyl)benzenesulfonyl]-2-hydroxyaminocarbonyl-4-(4-methylpentanoylamino)-piperidine] |  | 6.54 | 6.19 | 7.72 | 8.47 |  | 

More lines, now with the values ahead:

Row | melting point [°C] | pIC50 (Δ MT1-MMP (Δ MMP-14)) | pIC50 [1] | pIC50 (MMP-2 (gelatinase A)) | pIC50 (MMP-9 (gelatinase B)) | inhibition at 10 µM [1] [%] | inhibition at 10 µM (MMP-9 (gelatinase B); at 10^−5M, read-out: MMP-9 inhibition percent) [%] | Structure (SMILES)
5 | > 250 |  |  |  |  |  |  | CCN[C@@H]1CCN(S(=O)(=O)c2ccc(-c3ccc(OC)cc3)cc2)[C@@H](C(=O)O)C1 [Compound 27, (2R, 4R)-2-Carboxy-4-ethylamino-1-[4-(4-methoxyphenyl)benzenesulfonyl]-piperidine]
6 |  | 5.52 |  | 5.62 |  | 29.5 | 34.8 | CC(C)CCC(=O)N[C@@H]1CCN(S(=O)(=O)c2ccccc2-c2ccc(O)cc2)[C@@H](C(=O)NO)C1 [Compound 55, (2R, 4R)-2-Hydroxyaminocarbonyl-1-[2-(4-hydroxyphenyl)benzenesulfonyl]-4-(4-methylpentanoylamino)-piperidine]
7 |  | 6.52 |  | 6.30 | 6.35 | 31.1 |  | COc1ccc(OCCCCC(=O)N[C@H]2CCN(S(=O)(=O)c3ccc(OC)cc3)[C@H](C(=O)NO)C2)cc1 [Compound 78, (2S, 4S)-2-Hydroxyaminocarbonyl-1-(4-methoxybenzenesulfonyl)-4-[5-(4-methoxyphenoxy)pentanoylamino]-piperidine]
